# Assay results: patent publication US4774252A, “Benzisoselenazolonyl derivatives and processes for the treatment of rheumatic disease” (priority 1985, dated 1988)
# Columns and labels:
# [1] = tested on: Cobra-Venom-Factor (CVF)-oedema; assay: CVF-oedema test (inflammation-inhibiting activity); assay type: in vivo; settings: po, read-out: ED50 values in CVF-oedema
# [2] = tested on: CVF-oedema, carragenine-test; settings: S. Leyck et al., Agents and Actions 13, 437-438 (1983); cited from earlier work
Compound,ED50 [1] [mg/kg],inhibiting effect in CVF-oedema-test as compared with carragenine-test [2]
"CC(C)C(C(=O)O)n1[se]c2ccccc2c1=O (racemic) [DL-2-(1,2-Benzisoselenazole-3(2H)-one-2-yl)-3-methylbutyric acid]",5,
c1ccc([C@H]2CN3CCSC3=N2)cc1 [levamisole],,more significant inhibiting effect in CVF-oedema-test as in carragenine-test
O=C1CCN(c2ccccc2)N1 [phenidone],,more significant inhibiting effect in CVF-oedema-test as in carragenine-test
